Data on two molecules can be found in patent US11905254B1, “1-(3-chlorobenzylideneamino)-5,5-diphenylimidazolidine-2,4-dione as an antimicrobial compound” (KING FAISAL UNIVERSITY, priority 2023, dated 2024).

Common to all, as to format: cell-based
The subject of one experiment is Aspergillus flavus. Nature of the experiment: agar plate disc-diffusion, antifungal activity by inhibition zone. Particulars: Sabouraud's dextrose agar, 37° C., 72 hours, DMSO control subtracted. On the procedure: (§1) The agar plate disc-diffusion method was applied. […] The discs were then placed onto the surface of agar plates (nutrient agar for bacteria and Sabouraud's dextrose agar for fungi) seeded with the test organism. Each plate contained 15 mL of the agar medium, previously seeded with 0.2 mL of the broth culture of each organism pregrown for 18 hours. The plates were incubated at 37° C. for 48 hours, and 72 hours for fungi. The inhibition zones was measured in millimeter. Discs impregnated with DMSO were used as a control, and its inhibition zone was subtracted from the tested compound actual inhibition zone.
(§2) The results of the antimicrobial testing can be observed in Tables 1 and 2, below, with ciprofloxacin serving as a reference.
On the technique in general: A growth-free zone around the sample is the usual read-out of agar diffusion tests.

For experiment [1], the system named is Chrysosporium keratinophilum. The experiment is described as above. The settings on record: Sabouraud's dextrose agar, 37° C., 72 hours, DMSO control subtracted. On the procedure: as §1, §2
For a further experiment, the system named is Escherichia coli. Nature of the experiment: agar plate disc-diffusion, antibacterial activity by inhibition zone. Particulars: nutrient agar, 37° C., 48 hours, DMSO control subtracted. On the procedure:
as §1, §2

For another experiment, the system named is Pseudomonas aeruginosa. The experiment is described as above. The settings on record: nutrient agar, 37° C., 48 hours, DMSO control subtracted. The protocol:
as §1, §2

Another experiment has as its system Staphylococcus aureus. The description is as above. The settings on record: nutrient agar, 37° C., 48 hours, DMSO control subtracted. On the procedure: as §1, §2
The next experiment has as its system Bacillus Cereus. The experiment is described as above. The settings on record: nutrient agar, 37° C., 48 hours, DMSO control subtracted. On the procedure:
as §1, §2

The subject of another experiment is different microbes. Nature of the experiment: antimicrobial testing, overall statement on Tables 1 and 2. The settings on record: summary of Tables 1 and 2, bacteria and fungi. The protocol: The agar plate disc-diffusion method was applied. Sterilized filter papers (6 mm in diameter) were wetted with 10 μL of a solution of 1-(3-chlorobenzylideneamino)-5,5-diphenylimidazolidine-2,4-dione (4) to be tested, containing 10 mg/mL in DMSO, and the discs were allowed to air dry. The discs were then placed onto the surface of agar plates (nutrient agar for bacteria and Sabouraud's dextrose agar for fungi) seeded with the test organism. Each plate contained 15 mL of the agar medium, previously seeded with 0.2 mL of the broth culture of each organism pregrown for 18 hours. The plates were incubated at 37° C. for 48 hours, and 72 hours for fungi. The inhibition zones was measured in millimeter. Discs impregnated with DMSO were used as a control, and its inhibition zone was subtracted from the tested compound actual inhibition zone.
The antibacterial activity was screened against gram positive bacteria namely Bacillus cereus and Staphylococcus aureus and gram-negative bacterial strains namely Pseudomonas aeruginosa and Escherichia coli, while the antifungal activity was screened against Aspergillus flavus and Chrysosporium keratinophilum.

[2] abbreviates: A = concentration of comp. = 10,000 μL.
Where [3] appears, read: B = concentration of comp. = 30.000 μL.
Setting [4] is: C = concentration of comp. = 50,000 μL.

With `O=C(O)c1cn(C2CC2)c2cc(N3CCNCC3)c(F)cc2c1=O` [Cip., ciprofloxacin, reference compound], the inhibition zone in the experiment on Aspergillus flavus (setting [2]) worked out at 29 millimeter; in the experiment on Aspergillus flavus (setting [3]) it was 30 millimeter; in the experiment on Aspergillus flavus (setting [4]) it was 42 millimeter; in experiment [1] (setting [2]), 29 millimeter; in experiment [1] (setting [3]), 30 millimeter; in experiment [1] (setting [4]), 53 millimeter. Moreover, the inhibition zone was 30 millimeter in the experiment on Escherichia coli (setting [2]); 39 millimeter with Escherichia coli (setting [3]); 60 millimeter in the experiment with Escherichia coli (setting [4]); 29 millimeter in the experiment on Pseudomonas aeruginosa (setting [2]); 30 millimeter with Pseudomonas aeruginosa (setting [3]); 53 millimeter with Pseudomonas aeruginosa (setting [4]). Besides, the inhibition zone in the experiment with Staphylococcus aureus (setting [2]) worked out at 43 millimeter; with Staphylococcus aureus (setting [3]), 44 millimeter; with Staphylococcus aureus (setting [4]) it was 53 millimeter; in the experiment with Bacillus Cereus (setting [2]), 29 millimeter; in the experiment on Bacillus Cereus (setting [3]), 30 millimeter; in the experiment with Bacillus Cereus (setting [4]) it was 42 millimeter.

With `O=C1NC(=O)C(c2ccccc2)(c2ccccc2)N1/N=C/c1cccc(Cl)c1` [Compound 4, 1-(3-chlorobenzylideneamino)-5,5-diphenylimidazolidine-2,4-dione], the “antimicrobial activities (in words)” value with different microbes is reported as “high antimicrobial activities”. For the same molecule, the inhibition zone turned out to be 20 millimeter in the experiment with Aspergillus flavus (setting [2]); 24 millimeter in the experiment with Aspergillus flavus (setting [3]); 35 millimeter with Aspergillus flavus (setting [4]); 24 millimeter in experiment [1] (setting [2]); 25 millimeter in experiment [1] (setting [3]); 41 millimeter in experiment [1] (setting [4]). The inhibition zone in the experiment on Escherichia coli (setting [2]) stood at 24 millimeter; with Escherichia coli (setting [3]), 30 millimeter; in the experiment with Escherichia coli (setting [4]) it was 46 millimeter; in the experiment with Pseudomonas aeruginosa (setting [2]) it was 23 millimeter; in the experiment on Pseudomonas aeruginosa (setting [3]), 24 millimeter; in the experiment on Pseudomonas aeruginosa (setting [4]), 42 millimeter. The inhibition zone in the experiment on Staphylococcus aureus (setting [2]) came to 24 millimeter; in the experiment with Staphylococcus aureus (setting [3]), 30 millimeter; in the experiment on Staphylococcus aureus (setting [4]), 40 millimeter; in the experiment with Bacillus Cereus (setting [2]), 26 millimeter; with Bacillus Cereus (setting [3]), 28 millimeter; in the experiment on Bacillus Cereus (setting [4]) it was 39 millimeter.
